Measurements published in PMC11475320 (2024).

Tests used:
Test in all cases: CD melting at 260 nm
[1] = system: AsGq (G-quadruplex of As4625') (DNA, G4) GGTGGTGGTGGTTGTGGTGGTGGTGGAACGGAGGCTGGGAT; conditions: K+ 40 mM, Mg2+ from TAMg buffer (0.04×), 2% DMF, 4 μM ZnPc, 16 μM DNA, derived from two Tm (53.0, 54.6)
[2] = system: AsGq-4625 (DNA, G4, strand 2: 2'-OMe at 1-5 and 16-20 (text b19; Table S1 footnote says 2'-modification with hydroxy group); phosphorothioate at all linkages) GGTGGTGGTGGTTGTGGTGGTGGTGGAACGGAGGCTGGGAT/AAGGCATCCCAGCCTCCGUU; conditions: K+ 40 mM, Mg2+ from TAMg buffer (0.04×), 2% DMF, 4 μM ZnPc, 16 μM DNA, derived from two Tm (52.3, 53.1)
[3] = system: As1411 (DNA, G4) GGTGGTGGTGGTTGTGGTGGTGGTGG; conditions: K+ 40 mM, Mg2+ from TAMg buffer (0.04×), 2% DMF, 4 μM ZnPc, 16 μM DNA, derived from two Tm (59.8, 61.7)

ΔTm [1]: 1.6 °C
ΔTm [2]: 0.8 °C
ΔTm [3]: 1.9 °C
Compound: [Zn+2].c1ccc2c(c1)-c1nc3nc(nc4[n-]c(nc5[n-]c(nc-2n1)c1ccccc51)c1ccccc41)-c1ccccc1-3
